How the values were obtained:
[1] = tested on: Hh signaling pathway (Gli-luc reporter, NIH3T3 cells); experiment: NIH3T3-Gli-luciferase reporter assay (Gli-Luc dual luciferase); assay type: cell-based, Mouse; details: NIH3T3 cells transfected with Gli luciferase reporter, stimulated with 10 nM SAG, 24 h, average of triplicate separate determinations
Procedure: In the Hh signaling pathway activity test, we used the Gli-Luc double luciferase detection system, which is widely used to test the inhibitory activity of the Hh signaling pathway. […]
3.3.1. NIH3T3-Gli-Luciferase Reporter Assay
NIH3T3 cells (Chinese Academy of Sciences cell bank, Mouse embryonic fibroblast cell line) were grown in Dulbecco’s Modified Eagle Media (DMEM) media supplemented with 10% fetal bovine serum (FBS) at 37 °C with a humidified 5% CO2 atmosphere.
NIH3T3 cells were plated one day before transfection. To prepare NIH3T3 cells, enough cells were collected to complete the transfection experiment, and centrifuged for 5 min at 300× g. The cell pellet was resuspended to an appropriate concentration in DMEM media with 0.5% FBS, then 5000 cells were plated in 100 μL per well of a 96-well plate.
The NIH3T3 cells were transfected with the Glioma-associated oncogene (GLI)-reporter, negative control, and positive control constructs (QIAGEN, Cat# CCS-6030L) by using Fugene HD transfection reagents (Promega, Cat. No. E2311, Madison, WI). The FuGENER HD Transfection Reagent/DNA mixture was incubated for 15 min at room temperature. A total of 10 μL of the FuGENER HD Transfection Reagent/DNA mixture was added per well to the 96-well plate containing 100 μL cells in growth medium. The mixture was mixed gently using a plate shaker. Cells were returned to the incubator for 24–48 h. Transfection efficiency was estimated by observing green fluorescent protein (GFP) expression in the positive control wells by fluorescence microscopy.
[…] Cells were incubated with SAG and compounds for 24 h. To study the effect of test compounds, cells were harvested 24 h after treatment to perform the dual-luciferase assay.
Dual-Luciferase assays were conducted using the Dual-Luciferase® Assay System (Promega, Cat# E1910) according to Promega’s protocol. Each system included: 5X Passive Lysis Buffer (PLB), Luciferase Assay Buffer II, Luciferase Assay Substrate, and 50X Stop & Glo® Substrate and Stop & Glo® Buffer.
After 24 h treatment, the assay medium was removed and cells were washed with PBS buffer, and then 20 μL of 1XPLB was added to each well. The culture plates were incubated on a plate shaker with gentle shaking at room temperature for 15 min. A total of 100 μL LARII was added to each well, and the firefly luciferase luminescence signal was measured using an EnVision® 2104 Multilabel Reader (PerkinElmer, Waltham, MA, USA), with a measure time of 10s. A total of 100 μL Stop & Glo® Reagent was added to each well, and Renilla luciferase luminescence signal was measured using an EnVision® 2104 Multilabel Reader (PerkinElmer); the measure time was 10 s.
Relative Luciferase Units (RLU) Calculation
Firefly: Renilla activity ratios were generated from experimental and control transfections. Ratios from transcription factor-responsive reporter transfections were divided by ratios from negative control transfections to obtain relative luciferase units. […]
The histogram of % inhibition of compounds was generated by using GraphPad Prism 5.0 software (GraphPad Software Inc., La Jolla, CA, USA).

[2] = molecular target: T1, human Smo (Homo sapiens, UniProt Q99835); experiment: hSmo BODIPY-cyclopamine competitive binding assay; details: inhibition of BODIPY-cyclopamine fluorescence, competitive displacement, HEK 293 cells over-expressing human Smo; single IC50 determination; read-out: Smo-BCB IC50
T1 construct: HA; expressed in transfected cells; host or cells: HEK293
Procedure: To determine whether the Hh inhibitory activities of the target compounds were derived from their inhibition to the Smo receptor, a binding assay was used.
3.3.2. Hsmo-BC Binding Assay
BODIPY-cyclopamine binding assay is a fluorescence-based assay used to analyze the binding of Smo agonists/antagonists. HEK293 cells were transfected with pCMV-HA/hSmo using Lipofectamine reagent (Lipofectamine™ 2000, Invitrogen, Carlsbad, CA, USA). Briefly, 50 μL of Lipofectamine 2000 and 22.5 μg of pCMV-HA/hSmo were each incubated in 1.5 mL of Opti-MEMI media (Invitrogen) at room temperature for 30 min and then was added to 1 × 10^6 HeK293 cells in 25 mL of culture medium in a 75 cm^2 cell culture flask. After overnight incubation under 5% CO2 at 37 °C, cells were detached using Versene (Invitrogen) and resuspended in culture medium. The suspended cells were added to a 96-well plate at 10,000 cells/well. After removing the media from each well, the cells were fixed with 4% paraformaldehyde (PFA) for 20 min at room temperature. Then the PFA buffer was removed, and the cells were incubated with 4′,6-diamidino-2-phenylindole (DAPI) ([…]) for 10 min, followed by washing with PBS four times. […] After incubation, the cells were washed five times with PBST (PBS buffer supplied with 0.05% Tween-20). The fluorescence images were automatically captured and analyzed by a high content fluorescence imaging system (Arrayscan VTI, Thermo, Waltham, MA, USA). Data was expressed as a percentage of fluorescence intensity observed with BODIPY-cyclopamine alone. […] IC50 values were calculated with GraphPad Prism software using the sigmoidal dose-response function.

T1 sequence (Q99835 28-787): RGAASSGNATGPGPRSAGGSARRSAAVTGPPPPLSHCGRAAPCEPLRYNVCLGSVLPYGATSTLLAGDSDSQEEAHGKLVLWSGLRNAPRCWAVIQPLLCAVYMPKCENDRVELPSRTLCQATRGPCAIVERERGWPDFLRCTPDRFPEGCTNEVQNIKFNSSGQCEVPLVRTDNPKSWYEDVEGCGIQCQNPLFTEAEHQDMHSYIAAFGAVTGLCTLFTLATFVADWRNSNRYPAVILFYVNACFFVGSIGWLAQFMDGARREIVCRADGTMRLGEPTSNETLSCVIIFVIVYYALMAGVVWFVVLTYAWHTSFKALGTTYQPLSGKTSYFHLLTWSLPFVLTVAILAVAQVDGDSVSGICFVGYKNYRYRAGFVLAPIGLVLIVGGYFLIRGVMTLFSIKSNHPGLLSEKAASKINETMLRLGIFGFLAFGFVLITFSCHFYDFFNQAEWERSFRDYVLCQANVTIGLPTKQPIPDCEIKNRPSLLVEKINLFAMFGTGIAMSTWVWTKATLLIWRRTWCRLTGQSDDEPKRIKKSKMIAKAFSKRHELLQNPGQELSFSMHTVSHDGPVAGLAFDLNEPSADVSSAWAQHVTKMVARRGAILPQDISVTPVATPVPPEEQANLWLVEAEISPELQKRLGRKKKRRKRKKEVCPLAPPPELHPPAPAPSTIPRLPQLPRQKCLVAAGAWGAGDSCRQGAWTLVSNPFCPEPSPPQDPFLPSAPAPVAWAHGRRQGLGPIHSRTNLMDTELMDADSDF

“3-Methoxy-N-(3-(4-(4-methylpiperazine-1-carbonyl)piperidin-1-yl)phenyl)benzamide [Compound 5j]” gave an IC50 [1] of 4.74 ± 0.02 µM.
In the case of “3-Methyl-N-(3-(4-(4-methylpiperazine-1-carbonyl)piperidin-1-yl)phenyl)benzamide [Compound 5i]”, the IC50 [1] is reported as 16.32 ± 0.05 µM.
Work on CN1CCN(C(=O)C2CCN(c3cccc(NC(=O)c4ccccc4)c3)CC2)CC1 [Compound 5a, N-(3-(4-(4-Methylpiperazine-1-carbonyl)piperidin-1-yl)phenyl)benzamide] yielded an IC50 ([1]; Mus musculus) of 28.52 ± 0.02 µM.
For CN1CCN(C(=O)C2CCN(c3cccc(NC(=O)c4ccc(Cl)cc4)c3)CC2)CC1 [Compound 5b, 4-Chloro-N-(3-(4-(4-methylpiperazine-1-carbonyl)piperidin-1-yl)phenyl)benzamide], the IC50 ([1]; Mus musculus) was 12.47 ± 0.11 µM.
CN1CCN(C(=O)C2CCN(c3cccc(NC(=O)c4cccc(Cl)c4)c3)CC2)CC1 [Compound 5c, 3-Chloro-N-(3-(4-(4-methylpiperazine-1-carbonyl)piperidin-1-yl)phenyl)benzamide] gave an IC50 ([1]; Mus musculus) of 14.63 ± 0.01 µM.
CN1CCN(C(=O)C2CCN(c3cccc(NC(=O)c4ccc(F)cc4)c3)CC2)CC1 [Compound 5d, 4-Fluoro-N-(3-(4-(4-methylpiperazine-1-carbonyl)piperidin-1-yl)phenyl)benzamide] was tested, and the IC50 ([1]; Mus musculus) was 15.51 ± 0.03 µM.
Compound CN1CCN(C(=O)C2CCN(c3cccc(NC(=O)c4cccc(F)c4)c3)CC2)CC1 [Compound 5e, 3-Fluoro-N-(3-(4-(4-methylpiperazine-1-carbonyl)piperidin-1-yl)phenyl)benzamide] has an IC50 ([1]; Mus musculus) of 17.59 ± 0.15 µM.
For CN1CCN(C(=O)C2CCN(c3cccc(NC(=O)c4cccc([N+](=O)[O-])c4)c3)CC2)CC1 [Compound 5f, N-(3-(4-(4-methylpiperazine-1-carbonyl)piperidin-1-yl)phenyl)-3-nitrobenzamide], the IC50 ([1]; Mus musculus) was 53.34 ± 0.07 µM.
CN1CCN(C(=O)C2CCN(c3cccc(NC(=O)c4ccc([N+](=O)[O-])cc4)c3)CC2)CC1 [Compound 5g, N-(3-(4-(4-methylpiperazine-1-carbonyl)piperidin-1-yl)phenyl)-4-nitrobenzamide] showed an IC50 ([1]; Mus musculus) of 60.56 ± 0.04 µM.
With CN1CCN(C(=O)C2CCN(c3cccc(NC(=O)c4ccc(Br)cc4)c3)CC2)CC1 [Compound 5h, 4-Bromo-N-(3-(4-(4-methylpiperazine-1-carbonyl)piperidin-1-yl)phenyl)benzamide] the IC50 ([1]; Mus musculus) was 7.85 ± 0.01 µM.
Work on Cc1ccccc1C(=O)Nc1cccc(N2CCC(C(=O)N3CCN(C)CC3)CC2)c1 [Compound 5k, 2-Methyl-N-(3-(4-(4-methylpiperazine-1-carbonyl)piperidin-1-yl)phenyl)benzamide] yielded an IC50 ([1]; Mus musculus) of 16.61 ± 0.12 µM.
For COc1cc(OC)cc(C(=O)Nc2cccc(N3CCC(C(=O)N4CCN(C)CC4)CC3)c2)c1 [Compound 5l, 3,5-Dimethoxy-N-(3-(4-(4-methylpiperazine-1-carbonyl)piperidin-1-yl)phenyl)benzamide], the IC50 ([1]; Mus musculus) was 1.83 ± 0.03 µM and the IC50 [2] was 2.41 ± 0.01 µM.
For CN1CCN(C(=O)C2CCN(c3cccc(NC(=O)c4ccccc4Br)c3)CC2)CC1 [Compound 5m, 2-Bromo-N-(3-(4-(4-methylpiperazine-1-carbonyl)piperidin-1-yl)phenyl)benzamide], the IC50 ([1]; Mus musculus) was 10.49 ± 0.05 µM.
Compound CN1CCN(C(=O)C2CCN(c3cccc(NC(=O)c4cccnc4)c3)CC2)CC1 [Compound 5n, N-(3-(4-(4-methylpiperazine-1-carbonyl)piperidin-1-yl)phenyl)nicotinamide] has an IC50 ([1]; Mus musculus) of 5.32 ± 0.13 µM and an IC50 [2] of 6.35 ± 0.07 µM.
In the case of CN1CCN(C(=O)C2CCN(c3cccc(NC(=O)c4ccc(S(C)(=O)=O)cc4Cl)c3)CC2)CC1 [Compound 5o, 2-Chloro-N-(3-(4-(4-methylpiperazine-1-carbonyl)piperidin-1-yl)phenyl)-4-(methylsulfonyl)benzamide], the IC50 ([1]; Mus musculus) is reported as 4.28 ± 0.01 µM and the IC50 [2] is reported as 6.23 ± 0.12 µM.
In the case of CN1CCN(C(=O)C2CCN(c3cccc(NC(=O)c4ccc(S(C)(=O)=O)cc4)c3)CC2)CC1 [Compound 5p, N-(3-(4-(4-methylpiperazine-1-carbonyl)piperidin-1-yl)phenyl)-4-(methylsulfonyl)benzamide], the IC50 ([1]; Mus musculus) is reported as 3.43 ± 0.08 µM.
CN1CCN(C(=O)C2CCN(c3cccc(NC(=O)c4cccc(-c5ccccn5)c4)c3)CC2)CC1 [Compound 5q, N-(3-(4-(4-methylpiperazine-1-carbonyl)piperidin-1-yl)phenyl)-3-(pyridin-2-yl)benzamide] showed an IC50 ([1]; Mus musculus) of 1.26 ± 0.03 µM and an IC50 [2] of 1.61 ± 0.02 µM.
With CS(=O)(=O)N1CCN(C(=O)Cc2ccc(Cl)c(NC(=O)c3ccc(Cl)cc3)c2)CC1 [Compound 8a, 4-Chloro-N-(2-chloro-5-(2-(4-(methylsulfonyl)piperazin-1-yl)-2-oxoethyl)phenyl)benzamide] the IC50 ([1]; Mus musculus) was 6.88 ± 0.13 µM.
O=C(Nc1cc(CC(=O)N2CCN(S(=O)(=O)c3ccc(F)cc3)CC2)ccc1Cl)c1ccc(Cl)cc1 [Compound 8b, 4-Chloro-N-(2-chloro-5-(2-(4-((4-fluorophenyl)sulfonyl)piperazin-1-yl)-2-oxoethyl)phenyl)benzamide] gave an IC50 ([1]; Mus musculus) of 12.7 ± 0.16 µM.
CCCCS(=O)(=O)N1CCN(C(=O)Cc2ccc(Cl)c(NC(=O)c3ccc(Cl)cc3)c2)CC1 [Compound 8c, N-(5-(2-(4-(butylsulfonyl)piperazin-1-yl)-2-oxoethyl)-2-chlorophenyl)-4-chlorobenzamide] gave an IC50 ([1]; Mus musculus) of 8.62 ± 0.09 µM.
COc1cc(C(=O)NC(=S)Nc2cccc(NC(=O)c3ccccc3)c2)cc(OC)c1OC [MRT10, reference compound] showed an IC50 ([1]; Mus musculus) of 2.15 µM.
In the case of CS(=O)(=O)c1ccc(C(=O)Nc2ccc(Cl)c(-c3ccccn3)c2)c(Cl)c1 [Vismodegib, reference compound], the IC50 ([1]; Mus musculus) is reported as 0.025 µM.
